Active and inactive are the calls of the source. The rule behind the calls is not given here.
Tests used:
[1] = target: T1, Orexin receptor type 2 (Homo sapiens, UniProt O43614); assay: Binding affinity to OX2R
T1 sequence (O43614 whole entry): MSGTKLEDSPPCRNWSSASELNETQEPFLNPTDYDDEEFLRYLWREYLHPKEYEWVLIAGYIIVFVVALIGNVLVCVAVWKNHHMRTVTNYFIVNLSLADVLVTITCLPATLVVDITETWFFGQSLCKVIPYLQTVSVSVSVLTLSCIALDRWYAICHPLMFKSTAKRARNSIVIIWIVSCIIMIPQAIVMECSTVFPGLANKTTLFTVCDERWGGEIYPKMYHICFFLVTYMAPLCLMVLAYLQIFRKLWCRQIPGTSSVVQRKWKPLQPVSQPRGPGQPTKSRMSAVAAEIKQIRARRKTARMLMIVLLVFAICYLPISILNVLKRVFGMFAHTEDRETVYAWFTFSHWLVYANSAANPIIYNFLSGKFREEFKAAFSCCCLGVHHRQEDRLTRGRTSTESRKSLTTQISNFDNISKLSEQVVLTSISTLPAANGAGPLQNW

[2] = target: T2, Orexin/Hypocretin receptor type 1 (Homo sapiens, UniProt O43613); assay: Binding affinity to OX1R
T2 sequence (O43613 whole entry): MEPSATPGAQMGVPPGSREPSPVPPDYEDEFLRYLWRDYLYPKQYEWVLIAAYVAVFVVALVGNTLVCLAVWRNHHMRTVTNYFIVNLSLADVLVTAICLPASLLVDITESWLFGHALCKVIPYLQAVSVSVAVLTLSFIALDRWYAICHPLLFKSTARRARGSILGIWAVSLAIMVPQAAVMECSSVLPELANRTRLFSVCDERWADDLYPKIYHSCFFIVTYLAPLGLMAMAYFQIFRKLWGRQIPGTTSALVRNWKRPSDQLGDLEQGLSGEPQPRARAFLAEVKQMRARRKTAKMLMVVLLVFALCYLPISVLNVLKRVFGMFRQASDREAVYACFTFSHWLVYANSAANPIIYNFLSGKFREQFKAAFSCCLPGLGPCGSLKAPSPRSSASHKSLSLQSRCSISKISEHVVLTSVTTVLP

[3] = target: T2, Orexin/Hypocretin receptor type 1; assay: Antagonist activity at OX1R by FLIPR assay; type: functional
[4] = target: T1, Orexin receptor type 2; assay: Antagonist activity at OX2R by FLIPR assay; type: functional
[5] = system: Rattus norvegicus; assay: Effect on sleep-awake pattern in rat assessed as decrease in wakefulness at 60 mg/kg/day, po; type: functional, organism-based
[6] = system: Rattus norvegicus; assay: Effect on sleep-awake pattern in rat assessed as increase in […] at 60 mg/kg/day, po; type: functional, organism-based
[7] = system: Rattus norvegicus; assay: Effect on sleep-awake pattern in rat assessed as increase in REM sleep at 60 mg/kg/day, po; type: functional, organism-based
[8] = Clearance in Sprague-Dawley rat at 10 mg/kg, po and 2 mg/kg, iv; type: ADME, organism-based; conditions: in vivo
[9] = Ratio of drug level in CSF to plasma in Sprague-Dawley rat at 30 mg/kg after 2 hrs; type: ADME, organism-based; parameters: dose 30 mg/kg
[10] = Drug level in Sprague-Dawley rat plasma at 60 mg/kg after 1 hr; type: ADME, organism-based; parameters: dose 60 mg/kg; conditions: read-out: Drug uptake
[11] = system: Canis familiaris; assay: AUC (0 to 24 hrs) in dog at 3 mg/kg, po and 0.125 mg/kg, iv; type: ADME, organism-based, Canis lupus familiaris, Plasma; conditions: in vivo
[12] = system: Rattus norvegicus; assay: AUC (0 to 24 hrs) in Sprague-Dawley rat at 10 mg/kg, po and 2 mg/kg, iv; type: ADME, organism-based, Plasma; conditions: in vivo
[13] = Drug level in Sprague-Dawley rat plasma at 100 mg/kg after 2 hrs administered in PEG400; type: ADME, organism-based; parameters: dose 100 mg/kg; conditions: read-out: Drug uptake
[14] = Clearance in dog at 3 mg/kg, po and 0.125 mg/kg, iv; type: ADME, organism-based, Canis lupus familiaris; conditions: in vivo
[15] = Cmax in Sprague-Dawley rat at 10 mg/kg, po and 2 mg/kg, iv; type: ADME, organism-based; conditions: in vivo
[16] = Drug level in Sprague-Dawley rat plasma at 10 mg/kg after 2 hrs; type: ADME, organism-based; parameters: dose 10 mg/kg; conditions: read-out: Drug uptake
[17] = Drug level in Sprague-Dawley rat plasma at 30 mg/kg after 2 hrs; type: ADME, organism-based; parameters: dose 30 mg/kg; conditions: read-out: Drug uptake
[18] = Ratio of drug level in CSF to plasma in Sprague-Dawley rat at 10 mg/kg after 2 hrs; type: ADME, organism-based; parameters: dose 10 mg/kg
[19] = Drug level in Sprague-Dawley rat CSF at 60 mg/kg after 1 hr; type: ADME, organism-based, Cerebrospinal fluid; parameters: dose 60 mg/kg; conditions: read-out: Drug uptake
[20] = Ratio of drug level in CSF to plasma in Sprague-Dawley rat at 60 mg/kg after 1 hr; type: ADME, organism-based; parameters: dose 60 mg/kg
[21] = Oral bioavailability in Sprague-Dawley rat at 10 mg/kg; type: ADME, organism-based; conditions: in vivo
[22] = Drug level in Sprague-Dawley rat CSF at 30 mg/kg after 2 hrs; type: ADME, organism-based, Cerebrospinal fluid; parameters: dose 30 mg/kg; conditions: read-out: Drug uptake
[23] = Drug level in Sprague-Dawley rat CSF at 10 mg/kg after 2 hrs; type: ADME, organism-based, Cerebrospinal fluid; parameters: dose 10 mg/kg; conditions: read-out: Drug uptake
[24] = Oral bioavailability in dog at 3 mg/kg; type: ADME, organism-based, Canis lupus familiaris; conditions: in vivo
[25] = Half life in dog at 3 mg/kg, po and 0.125 mg/kg, iv; type: ADME, organism-based, Canis lupus familiaris; conditions: in vivo
[26] = Half life in Sprague-Dawley rat at 10 mg/kg, po and 2 mg/kg, iv; type: ADME, organism-based; conditions: in vivo
[27] = Cmax in dog at 3 mg/kg, po and 0.125 mg/kg, iv; type: ADME, organism-based, Canis lupus familiaris; conditions: in vivo

| Ki [1] | Ki [2] | IC50 [3] | IC50 [4] | SMILES | further results |
| --- | --- | --- | --- | --- | --- |
| 590 nM | 345 nM | 1600 nM | > 10000 nM | Cc1ccc(-n2nccn2)c(C(=O)N2CC[C@H]3CC[C@@H]2CN3c2ncc3ccc(F)cc3n2)c1 | – |
| 2.2 nM | 0.6 nM | 125 nM | 140 nM | Cc1ccc(-n2nccn2)c(C(=O)N2C[C@H]3CC[C@@H]2CCN3c2ncc3ccc(F)cc3n2)c1 | – |
| – | – | – | – | Cc1ccc(-n2nccn2)c(C(=O)N2C3CCC2CN(c2ncc4ccc(F)cc4n2)CC3)c1 (single isomer, unassigned; 8a) [listing 1 of 2 here] | Activity [5]: Active; Activity [6]: Active; Activity [7]: Active |
| 0.4 nM | 0.6 nM | 98 nM | 136 nM | Cc1ccc(-n2nccn2)c(C(=O)N2C3CCC2CN(c2ncc4ccc(F)cc4n2)CC3)c1 (single isomer, unassigned; 8a) [listing 2 of 2 here] | clearance [8]: 23 mL/min/kg; Kp at 2 h [9]: 0.007; concentration at 1 h [10]: 14600 nM; AUC [11]: 14.1 µM·h; AUC [12]: 1.57 µM·h; concentration at 2 h [13]: 12500 nM; clearance [14]: 3.6 mL/min/kg; Cmax [15]: 570 nM; concentration at 2 h [16]: 1100 nM; concentration at 2 h [17]: 3100 nM; Kp at 2 h [18]: 0.004; concentration at 1 h [19]: 170 nM; Kp at 1 h [20]: 0.011; bioavailability [21]: 14%; concentration at 2 h [22]: 23 nM; concentration at 2 h [23]: 3 nM; bioavailability [24]: 100%; half-life [25]: 1.8 h; half-life [26]: 1 h; Cmax [27]: 3400 nM |
| 2.9 nM | 10 nM | 104 nM | 370 nM | Cc1ccc(-n2nccn2)c(C(=O)N2C[C@H]3CC[C@@H]2CN(c2ncc4ccc(F)cc4n2)C3)c1 (single isomer, unassigned) | – |
| – | – | – | – | Cc1ccc(-n2nccn2)c(C(=O)N2CCCN(c3ncc4ccccc4n3)CC2)c1 | AUC [11]: 0.44 µM·h; AUC [12]: 0.19 µM·h; clearance [14]: 12 mL/min/kg |
| 0.6 nM | 0.4 nM | – | – | O=C(c1cc(Cl)ccc1-n1nccn1)N1C[C@@H]2C[C@H](C1)N(c1ncc3cc(F)ccc3n1)C2 | – |
| 14 nM | 7.6 nM | 800 nM | 740 nM | Cc1ccc(-n2nccn2)c(C(=O)N2C[C@@H]3CC[C@H]2CCN3c2ncc3ccc(F)cc3n2)c1 | – |
| 105 nM | 160 nM | 2300 nM | 1450 nM | Cc1ccc(-n2nccn2)c(C(=O)N2CC[C@@H]3CC[C@H]2CN3c2ncc3ccc(F)cc3n2)c1 | – |
| 6.7 nM | 3.7 nM | 99 nM | 150 nM | Cc1ccc(-n2nccn2)c(C(=O)N2C3CCC2CN(c2ncc4ccc(F)cc4n2)CC3)c1 (single isomer, unassigned; 8b) | – |
| 0.8 nM | 0.9 nM | 72 nM | 175 nM | Cc1ccc(-n2nccn2)c(C(=O)N2CCC3CCC(C2)N3c2ncc3ccc(F)cc3n2)c1 (racemic) | – |
| 62 nM | 2 nM | 46 nM | 790 nM | Cc1ccc(-n2nccn2)c(C(=O)N2C[C@@H]3CC[C@H]2CN(c2ncc4ccc(F)cc4n2)C3)c1 (single isomer, unassigned) | – |
